Laboratory results from ChEMBL document CHEMBL1201862, “PubChem BioAssay data set” (2004).
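48-hour exposure; five concentrations; linearly interpolated endpoints. The concentration for 50% growth inhibition is given as GI50.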 Calls of active or inactive are those of the source. Cut-off read from the data, not from the text of the source: active = GI50 up to about 1.1 µM and inactive = higher.

Assays:
Experiment in all cases: NCI tumour cell line growth inhibition, 48 h
A498 = test system: A498
ACHN = test system: ACHN
BT-549 = test system: BT-549
CAKI-1 = test system: CAKI-1
CCRF-CEM = test system: CCRF-CEM
DU-145 = test system: DU-145
HCC 2998 = test system: HCC 2998
M14 = test system: M14
MOLT-4 = test system: MOLT-4
NCI-H23 = test system: NCI-H23
NCI/ADR-RES = test system: NCI/ADR-RES
OVCAR-3 = test system: OVCAR-3
SN12C = test system: SN12C
SNB-19 = test system: SNB-19
SW-620 = test system: SW-620
UACC-257 = test system: UACC-257
UACC-62 = test system: UACC-62
SNB-75 = test system: SNB-75
T47D = test system: T47D

Measured: GI50

Nc1cc(C(=O)O)nc(O)n1
inactive: A498 > 100 µM | ACHN > 100 µM | BT-549 > 100 µM | CAKI-1 > 100 µM | CCRF-CEM > 100 µM | DU-145 > 100 µM | HCC 2998 > 100 µM | M14 > 100 µM | MOLT-4 > 100 µM | NCI-H23 > 100 µM | NCI/ADR-RES > 100 µM | OVCAR-3 > 100 µM | SN12C > 100 µM | SNB-19 > 100 µM | SW-620 > 100 µM | UACC-257 > 100 µM | UACC-62 > 100 µM

N#C/C(=C\c1ccc(Cl)cc1)c1nc(-c2cc3ccccc3oc2=O)cs1
inactive: ACHN 38.2 µM | BT-549 14.9 µM | CAKI-1 > 100 µM | CCRF-CEM > 100 µM | DU-145 48.5 µM | HCC 2998 57.5 µM | M14 51.5 µM | MOLT-4 > 100 µM | NCI/ADR-RES 39.6 µM | SN12C 70.3 µM | SNB-19 43.6 µM | SNB-75 26.9 µM | SW-620 > 100 µM | T47D 44 µM | UACC-257 47.6 µM | UACC-62 28.9 µM

S=C(c1c[nH]c2ccccc12)N1CCCCC1
inactive: A498 > 100 µM | ACHN > 100 µM | BT-549 92.9 µM | CAKI-1 > 100 µM | CCRF-CEM 89.9 µM | DU-145 > 100 µM | M14 > 100 µM | MOLT-4 58.1 µM | NCI-H23 > 100 µM | NCI/ADR-RES 66.5 µM | OVCAR-3 > 100 µM | SN12C > 100 µM | SNB-19 > 100 µM | SW-620 > 100 µM | UACC-257 > 100 µM | UACC-62 > 100 µM

CC1(C)OC(C(C)(C)O)C(C(C)(C)O)O1 (stereo not drawn)
inactive: ACHN > 100 µM | BT-549 > 100 µM | CAKI-1 > 100 µM | CCRF-CEM > 100 µM | DU-145 > 100 µM | HCC 2998 > 100 µM | M14 > 100 µM | MOLT-4 > 100 µM | NCI-H23 > 100 µM | NCI/ADR-RES > 100 µM | SN12C > 100 µM | SNB-19 > 100 µM | SNB-75 > 100 µM | SW-620 > 100 µM | T47D > 100 µM | UACC-257 > 100 µM | UACC-62 > 100 µM

C/C(Cc1ccc2c(c1)OCO2)=N\NC(=O)C(C)Sc1nnc(SC(C)C(=O)N/N=C(\C)Cc2ccc3c(c2)OCO3)s1 (stereo not drawn)
inactive: A498 62.4 µM | ACHN > 100 µM | BT-549 > 100 µM | CAKI-1 > 100 µM | CCRF-CEM 66.2 µM | DU-145 > 100 µM | HCC 2998 > 100 µM | M14 > 100 µM | MOLT-4 27.7 µM | NCI-H23 > 100 µM | NCI/ADR-RES > 100 µM | OVCAR-3 > 100 µM | SNB-19 > 100 µM | SNB-75 83.9 µM | SW-620 > 100 µM | UACC-257 > 100 µM | UACC-62 > 100 µM

O=C(O)c1ccc(/C=N\N(CCO)C2=NCCN2)cc1
inactive: ACHN > 100 µM | BT-549 > 100 µM | CCRF-CEM > 100 µM | DU-145 > 100 µM | HCC 2998 > 100 µM | M14 > 100 µM | MOLT-4 > 100 µM | NCI-H23 > 100 µM | OVCAR-3 > 100 µM | SN12C > 100 µM | SNB-19 > 100 µM | SNB-75 66.5 µM | SW-620 > 100 µM | T47D > 100 µM | UACC-62 > 100 µM

COc1ccccc1/C=C1\SC(=S)N(/C=C2\C(=O)Oc3ccccc3C2=O)C1=O
active: CAKI-1 0.458 µM
inactive: ACHN 47.5 µM | BT-549 21.1 µM | CCRF-CEM 36.2 µM | DU-145 33.3 µM | M14 36.2 µM | MOLT-4 33.9 µM | NCI-H23 1.62 µM | NCI/ADR-RES 29.3 µM | OVCAR-3 19.8 µM | SNB-19 32.7 µM | SNB-75 22 µM | SW-620 43.2 µM | UACC-257 22.9 µM | UACC-62 23.8 µM

C/C(=C1/N=C(c2ccccc2)OC1=O)c1ccc(C)cc1
inactive: A498 > 100 µM | ACHN > 100 µM | BT-549 > 100 µM | CAKI-1 > 100 µM | CCRF-CEM > 100 µM | DU-145 > 100 µM | HCC 2998 > 100 µM | M14 > 100 µM | MOLT-4 > 100 µM | NCI-H23 > 100 µM | OVCAR-3 > 100 µM | SN12C > 100 µM | SNB-19 > 100 µM | SW-620 > 100 µM | T47D > 100 µM | UACC-257 > 100 µM | UACC-62 > 100 µM

COc1nc2ccc(COc3ccc(C(=O)O)cc3)cc2nc1OC
inactive: A498 95.7 µM | ACHN 80.4 µM | CAKI-1 93.3 µM | CCRF-CEM 36.6 µM | DU-145 > 100 µM | HCC 2998 58.2 µM | M14 66.1 µM | MOLT-4 > 100 µM | NCI-H23 > 100 µM | NCI/ADR-RES 88.1 µM | OVCAR-3 > 100 µM | SN12C > 100 µM | SNB-19 > 100 µM | SNB-75 11.7 µM | SW-620 83.8 µM | T47D > 100 µM | UACC-257 > 100 µM | UACC-62 33.6 µM

COC(=O)C(=O)C(C(=O)C(=O)Nc1nc2ccc(C)cc2s1)c1nc2ccc([N+](=O)[O-])cc2nc1O (stereo not drawn)
inactive: A498 > 100 µM | ACHN > 100 µM | BT-549 > 100 µM | CAKI-1 > 100 µM | CCRF-CEM > 100 µM | HCC 2998 > 100 µM | M14 > 100 µM | NCI-H23 > 100 µM | NCI/ADR-RES > 100 µM | OVCAR-3 > 100 µM | SN12C > 100 µM | SNB-19 72.6 µM | SNB-75 > 100 µM | SW-620 > 100 µM | T47D > 100 µM | UACC-257 > 100 µM | UACC-62 > 100 µM

CC(=O)Nc1sccc1S(=O)(=O)c1ccc(Cl)cc1
inactive: ACHN > 100 µM | BT-549 > 100 µM | CAKI-1 > 100 µM | CCRF-CEM > 100 µM | DU-145 > 100 µM | HCC 2998 > 100 µM | M14 > 100 µM | MOLT-4 > 100 µM | NCI-H23 > 100 µM | NCI/ADR-RES > 100 µM | OVCAR-3 > 100 µM | SN12C > 100 µM | SNB-19 > 100 µM | SNB-75 55.6 µM | SW-620 > 100 µM | T47D > 100 µM | UACC-257 > 100 µM | UACC-62 > 100 µM

CC(=O)OC1CCC2C3CCc4c(C)ccc(OS(=O)(=O)c5ccccc5)c4C3CCC12C (stereo not drawn)
inactive: A498 32.5 µM | ACHN 35.9 µM | BT-549 23.7 µM | CAKI-1 24 µM | CCRF-CEM 19.1 µM | DU-145 33.1 µM | HCC 2998 64.9 µM | MOLT-4 6.32 µM | NCI-H23 16.3 µM | OVCAR-3 7.33 µM | SN12C > 100 µM | SNB-19 47.1 µM | SW-620 63.5 µM | UACC-257 73.3 µM | UACC-62 26.2 µM

COC(=O)CCC(NC(=O)C(C)NC(=O)COC1C(O)C(OC(=O)CCNc2c3ccccc3nc3cccc([N+](=O)[O-])c23)OC(OCc2ccccc2)C1NC(C)=O)C(N)=O (stereo not drawn)
inactive: A498 > 10 µM | ACHN 3.61 µM | BT-549 > 10 µM | CCRF-CEM > 10 µM | DU-145 2.6 µM | HCC 2998 2.76 µM | M14 2.79 µM | MOLT-4 3 µM | NCI-H23 > 10 µM | OVCAR-3 5.42 µM | SN12C 4.2 µM | SNB-19 5.36 µM | SNB-75 > 10 µM | T47D > 10 µM | UACC-257 > 10 µM | UACC-62 3.08 µM
active: SW-620 0.114 µM

C=C1CC=CC(C)(C)C1C/C=C(\C)C(O)CBr (stereo not drawn)
inactive: A498 > 100 µM | ACHN 53.7 µM | BT-549 97.3 µM | CAKI-1 23.2 µM | CCRF-CEM 47.8 µM | DU-145 45.4 µM | HCC 2998 87.9 µM | M14 82.6 µM | MOLT-4 21.9 µM | NCI-H23 > 100 µM | NCI/ADR-RES 19.2 µM | SN12C > 100 µM | SNB-19 > 100 µM | SW-620 33.1 µM | UACC-257 54.7 µM | UACC-62 53.7 µM

O=C(CCCN1CCC2(CC1)NC(=O)c1ccccc1O2)c1ccc(F)cc1
inactive: ACHN > 100 µM | BT-549 46.6 µM | CAKI-1 > 100 µM | CCRF-CEM 90.4 µM | DU-145 > 100 µM | HCC 2998 > 100 µM | M14 87.7 µM | MOLT-4 50.1 µM | NCI-H23 > 100 µM | NCI/ADR-RES > 100 µM | OVCAR-3 > 100 µM | SN12C > 100 µM | SNB-75 > 100 µM | SW-620 > 100 µM | T47D 84.3 µM | UACC-257 55.5 µM | UACC-62 > 100 µM

COC(=O)C1(O)c2ccccc2N=C2C(=O)c3ccccc3N21 (stereo not drawn) [METHYLISATOID]
inactive: A498 > 100 µM | ACHN > 100 µM | BT-549 > 100 µM | CAKI-1 > 100 µM | CCRF-CEM > 100 µM | DU-145 > 100 µM | HCC 2998 > 100 µM | MOLT-4 > 100 µM | NCI-H23 > 100 µM | NCI/ADR-RES > 100 µM | OVCAR-3 45.3 µM | SN12C > 100 µM | SNB-75 > 100 µM | SW-620 > 100 µM | UACC-257 23.8 µM
